Reference: ChEMBL document CHEMBL1201862, “PubChem BioAssay data set” (2004)
Activity calls are given as the source filed them.

Tests used:
[1] = target: Induced myeloid leukemia cell differentiation protein Mcl-1 (Homo sapiens, UniProt Q07820); type: functional
[2] = target: T1, Dual specificity protein phosphatase 3 (Homo sapiens, UniProt P51452); test: VHR1 phosphatase inhibitors, primary screen, biochemical, absorbance, uHTS (AID 1654)
[3] = target: T1, Dual specificity protein phosphatase 3; test: VHR1 phosphatase inhibitors, biochemical (AID 1878)
[4] = target: Dual specificity protein phosphatase 6 (Rattus norvegicus, UniProt Q64346); test: MKP-3 phosphatase inhibitors, primary screen, biochemical, rat enzyme, in vitro (AID 425)
[5] = target: T2, Kappa-type opioid receptor (Homo sapiens, UniProt P41145); test: kappa opioid receptor blockers, cell-based, luminescence, beta-arrestin, SAR follow-up (AID 2285); type: functional
Mu-type opioid receptor [6] = target: T3, Mu-type opioid receptor (Homo sapiens, UniProt P35372); test: HTS Image-Based Screen for Agonists of the MOR Receptor. [Related pubchem assays (depositor defined):AID1777, AID1785, AID1786, AID2133]; type: functional
Beta-galactosidase [7] = target: T4, Beta-galactosidase (Escherichia coli, UniProt Q8VNN2); type: functional
[8] = target: T5, Delta-type opioid receptor (Homo sapiens, UniProt P41143); test: DOR antagonists, SAR follow-up, image-based (AID 2357); type: functional
Mu-type opioid receptor [9] = target: T3, Mu-type opioid receptor; test: MOR antagonists, SAR follow-up, image-based (AID 2420); type: functional;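 note: compounds added before stimulation of receptor with agonist DAMGO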
Mu-type opioid receptor [10] = target: T3, Mu-type opioid receptor; test: MOR agonists by imaging, SAR follow-up, image-based (AID 2352); type: functional
[11] = target: T5, Delta-type opioid receptor; test: HTS Image-Based Screen for Agonists of the DOR Receptor. [Related pubchem assays (depositor defined):AID1777, AID1786, AID2133]; type: functional
[12] = target: T5, Delta-type opioid receptor; test: HTS Image-Based Screen for Antagonists of the DOR Receptor. [Related pubchem assays (depositor defined):AID1777, AID1785, AID1786, AID2133]; type: functional
[13] = target: T2, Kappa-type opioid receptor; test: KOR antagonists by imaging, SAR follow-up, image-based (AID 2348); type: functional
[14] = target: T5, Delta-type opioid receptor; test: DOR agonists, SAR follow-up, image-based (AID 2370); type: functional
[15] = target: T2, Kappa-type opioid receptor; test: KOR agonist analogs, imaging readout, SAR follow-up, image-based (AID 2359); type: functional
[16] = target: T2, Kappa-type opioid receptor; type: functional
[17] = target: T2, Kappa-type opioid receptor; type: functional; remark: listed apart in the source
Albumin = Albumin (Bos taurus, UniProt P02769); test: Counterscreen for inhibitors of T-cell receptor (TCR)-CD3 interaction: Fluorescence-based biochemical high throughput dose response assay to identify inhibitors of T-cell receptor (TCR)-CD3 interaction using a TAMRA-labeled BSA probe.; type: functional
cells [18] = type: functional, cell-based
[19] = Luminescence Cell-Based Dose Retest to Confirm Inhibitors of Cancer Stem Cells. [Related pubchem assays (depositor defined):AID2717, AID2721]; type: functional; conditions: Homo sapiens
SUMO-activating enzyme [20] = target: T6, SUMO-activating enzyme (Homo sapiens, UniProt Q9UBT2); test: inhibitors of in vitro SUMOylation cascade, primary screen, biochemical, HTRF, uHTS (AID 2006); type: protein-complex assay
INS1 = test: beta cell apoptosis inhibitors, cytokine rescue, dose response, luminescence, retest (AID 449756); type: functional, cell-based; conditions: Rattus norvegicus;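 note: cell death triggered by IL-1 beta plus TNF-alpha plus IFN-gamma mixture; protective hits raise ATP signal compared with cytokine alone wells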
cells [21] = type: functional, cell-based; remark: listed apart in the source
SUMO-activating enzyme [22] = target: T6, SUMO-activating enzyme; test: SUMOylation inhibitor hit validation, confirmation, SUMOylation inhibitor project, biochemical, AlphaScreen (AID 2018); type: functional
Streptococcus = test: Group A Streptococcus viability loss, dose response, counter-screen for streptokinase expression inhibitor project, luminescence, BacTiterGlo (AID 1915); type: functional, organism-based;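 note: potency for reduction of bacterial viability or growth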
[23] = test system: Streptococcus sp. 'group A'; test: growth inhibition of control SK(-) GAS strain, dose response, counter-screen for streptokinase expression inhibitor project, luminescence, kanamycin, BacTiterGlo, confirmation (AID 1900); type: functional, organism-based
[24] = target: T7, Runt-related transcription factor 1/Core-binding factor subunit beta (Homo sapiens, UniProt Q01196+Q13951); test: inhibitors of RUNX1 Runt–CBFb-SMMHC binding, primary screen, biochemical, FRET, Cerulean-Runt, Venus-CBFb-SMMHC, uHTS (AID 1434); type: protein assay;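 note: partner is the CBFb-SMMHC leukemia fusion protein rather than wild-type CBFb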
Troponin, cardiac muscle = Troponin, cardiac muscle (Homo sapiens, UniProt P19429+P45379+P63316); test: Fluorescence-based biochemical high throughput dose response assay for activators of the calcium sensitivity of cardiac Regulated Thin Filaments (RTF). [Related pubchem assays (depositor defined):AID493008, AID493018, AID504382, AID504383]; type: protein-complex assay
[25] = target: T8, Zinc finger protein mex-5 (Caenorhabditis elegans, UniProt Q9XUB2); test: MEX-5/TCR-2 RNA interaction inhibitors, dose response, biochemical, C. elegans, fluorescence polarization (AID 1960)
T8 sequence (Q9XUB2 whole entry): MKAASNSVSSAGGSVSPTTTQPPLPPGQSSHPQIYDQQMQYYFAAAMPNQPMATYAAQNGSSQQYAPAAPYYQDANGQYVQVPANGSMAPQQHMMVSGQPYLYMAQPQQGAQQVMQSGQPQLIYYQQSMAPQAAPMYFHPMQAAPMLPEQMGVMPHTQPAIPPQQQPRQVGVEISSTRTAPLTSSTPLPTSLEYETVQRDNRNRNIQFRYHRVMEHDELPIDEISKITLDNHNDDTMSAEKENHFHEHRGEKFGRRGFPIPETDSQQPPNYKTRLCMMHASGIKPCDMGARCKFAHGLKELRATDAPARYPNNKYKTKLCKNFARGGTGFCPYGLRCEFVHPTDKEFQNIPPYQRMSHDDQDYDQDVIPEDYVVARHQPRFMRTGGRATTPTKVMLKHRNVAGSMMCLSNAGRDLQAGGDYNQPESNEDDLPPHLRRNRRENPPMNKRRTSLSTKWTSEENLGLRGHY

[26] = target: T9, RNA-binding protein pos-1 (Caenorhabditis elegans, UniProt G5EF15); test: inhibitors of POS-1/mex-3 RNA binding, dose response, biochemical, fluorescence polarization (AID 1964);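 note: purified POS-1 fused to maltose binding protein made in E. coli; potency of compounds blocking POS-1 binding to fluorescent RNA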
T9 sequence (G5EF15 whole entry): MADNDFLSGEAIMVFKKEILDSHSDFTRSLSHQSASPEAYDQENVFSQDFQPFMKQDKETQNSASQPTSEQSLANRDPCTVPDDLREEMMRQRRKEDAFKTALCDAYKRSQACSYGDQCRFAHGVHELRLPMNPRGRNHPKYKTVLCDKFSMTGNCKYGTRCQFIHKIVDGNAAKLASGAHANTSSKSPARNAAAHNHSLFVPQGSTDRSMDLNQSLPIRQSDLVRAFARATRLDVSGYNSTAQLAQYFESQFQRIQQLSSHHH

[27] = target: T7, Runt-related transcription factor 1/Core-binding factor subunit beta; test: inhibitors of RUNX1 Runt–CBFb-SMMHC binding, biochemical, TR-FRET (AID 1438); type: protein assay
[28] = cytotoxicity toward NIH3T3 fibroblasts, dose response, counter-screen, cell-based, ATP luminescence, mouse fibroblasts (AID 2010); type: functional;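 note: cells exposed to compound for about 90 hours before reading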
[29] = cytotoxicity in MIN6 insulinoma cells, dose response, cytotoxicity control, cell-based, mouse insulinoma (AID 2122); type: functional;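 note: confirmatory high-throughput counterscreen run to flag cytotoxic compounds; mouse MIN-6 beta cells carrying an insulin promoter eGFP reporter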
Beta-galactosidase [30] = target: T4, Beta-galactosidase; test: PubChem AID 485352; type: functional
Hexokinase HKDC1 = target: T10, Hexokinase HKDC1 (Homo sapiens, UniProt Q2TB90); test: HKDC1 hexokinase activators, dose response, biochemical, W721R variant (AID 504730); type: functional
T10 sequence (Q2TB90 whole entry): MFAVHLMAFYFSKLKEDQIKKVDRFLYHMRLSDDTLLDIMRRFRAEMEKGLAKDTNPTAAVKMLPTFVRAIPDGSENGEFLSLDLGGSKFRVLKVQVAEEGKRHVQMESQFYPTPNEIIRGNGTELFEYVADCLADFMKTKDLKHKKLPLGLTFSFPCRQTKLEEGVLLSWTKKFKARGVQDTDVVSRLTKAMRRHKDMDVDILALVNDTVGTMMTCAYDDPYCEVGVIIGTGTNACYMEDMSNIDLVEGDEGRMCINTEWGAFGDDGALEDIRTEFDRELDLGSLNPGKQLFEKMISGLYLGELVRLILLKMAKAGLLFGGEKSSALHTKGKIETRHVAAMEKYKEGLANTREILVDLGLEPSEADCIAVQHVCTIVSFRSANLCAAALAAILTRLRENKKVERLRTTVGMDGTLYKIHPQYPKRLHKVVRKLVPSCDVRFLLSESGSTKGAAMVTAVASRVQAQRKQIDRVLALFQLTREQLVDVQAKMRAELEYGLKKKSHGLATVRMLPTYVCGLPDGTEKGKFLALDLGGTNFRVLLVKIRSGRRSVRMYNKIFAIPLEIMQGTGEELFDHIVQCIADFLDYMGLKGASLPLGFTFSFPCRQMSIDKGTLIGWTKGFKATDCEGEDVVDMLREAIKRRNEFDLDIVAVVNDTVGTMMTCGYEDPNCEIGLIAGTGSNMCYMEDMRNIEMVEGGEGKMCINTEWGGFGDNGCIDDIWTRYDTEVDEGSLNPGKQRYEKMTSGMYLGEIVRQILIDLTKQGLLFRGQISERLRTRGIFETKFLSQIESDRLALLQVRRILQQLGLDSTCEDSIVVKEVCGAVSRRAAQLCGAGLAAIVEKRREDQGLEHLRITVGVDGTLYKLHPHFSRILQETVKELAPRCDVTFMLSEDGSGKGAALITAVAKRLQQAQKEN

[31] = target: T11, Type-1 angiotensin II receptor (Homo sapiens, UniProt P30556); test: AT1 receptor antagonists, dose response, selectivity assay for APJ receptor antagonist project, cell-based, uHTS hits (AID 463214); type: functional;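 note: antagonist potency against angiotensin II stimulated AT1 response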
T11 sequence (P30556 whole entry): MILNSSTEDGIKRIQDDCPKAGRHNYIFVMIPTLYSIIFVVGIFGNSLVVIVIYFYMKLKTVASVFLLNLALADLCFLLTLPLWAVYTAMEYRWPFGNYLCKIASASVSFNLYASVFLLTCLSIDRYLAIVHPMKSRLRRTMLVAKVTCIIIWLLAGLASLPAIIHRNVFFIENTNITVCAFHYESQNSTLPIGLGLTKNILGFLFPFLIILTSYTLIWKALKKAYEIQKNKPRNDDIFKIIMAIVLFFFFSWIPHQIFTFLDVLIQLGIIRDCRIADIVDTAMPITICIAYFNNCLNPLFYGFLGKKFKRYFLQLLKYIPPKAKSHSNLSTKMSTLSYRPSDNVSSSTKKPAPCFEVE

[32] = insulin promoter down-regulators in MIN6 cells, imaging, high-content screening, mouse beta cells (AID 1628); type: functional
Hexokinase-1 = Hexokinase-1 (Homo sapiens, UniProt P19367); test: hexokinase 1 activators, dose response, selectivity assay for HKDC1 activator project, biochemical (AID 504762); type: functional
[33] = inhibitors of intracellular T. cruzi replication, confirmation, NIH3T3 host cells, beta-gal luminescence (AID 2044); type: functional, cell-based;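 note: intracellular parasites grown in NIH/3T3 mouse fibroblasts as host cells; luminescent beta-galactosidase reporter signal from transgenic T. cruzi replicating inside host cells; inhibitors lower the luminescence signal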

With `Cc1cc2nc(-c3ccc(SCc4ccc(C(=O)O)cc4)nc3)[nH]c2cc1C` the IC50 [1] was 7.97 µM (active), the IC50 [2] was 13.9 µM (active) and the IC50 [3] was 5.73 µM (active). The IC50 [4] was 25.8 µM (active).

With `CCOc1ccc(C(=O)NC2CC3CCCC(C2)N3Cc2ccccc2)cc1` (centres undefined) the IC50 [5] was > 10 µM (inactive), the EC50 (Mu-type opioid receptor [6]) was > 32 µM (inactive) and the EC50 (Beta-galactosidase [7]) was > 31.5 µM (inactive). The IC50 [8] was > 32 µM (inactive), the IC50 (Mu-type opioid receptor [9]) was > 32 µM (inactive) and the EC50 (Mu-type opioid receptor [10]) was > 32 µM (inactive). The EC50 [11] was > 32 µM (inactive), the IC50 [12] was > 32 µM (inactive) and the IC50 [13] was > 32 µM (inactive). For the same compound, the EC50 [14] was > 32 µM (inactive), the EC50 [15] was > 32 µM (inactive) and the IC50 [16] was 7.52 µM (active). For the same compound, the IC50 [17] was 14.8 µM.

In the case of `O=c1c2ccccc2nc(COc2ccccc2)n1/N=C/c1cc([N+](=O)[O-])ccc1O`, the IC50 (Albumin) is reported as > 94.1 µM (inactive), the EC50 (cells [18]) is reported as 24.3 µM (active) and the AC50 [19] is reported as 10.2 µM (active). For the same compound, the IC50 (SUMO-activating enzyme [20]) was 32.1 µM (active), the AC50 (INS1) was 3.74 µM (active) and the EC50 (cells [21]) was 22.8 µM (active). The IC50 (SUMO-activating enzyme [22]) was 0.99 µM (active), the EC50 (Streptococcus) was 4.65 µM (active) and the EC50 [23] was 5.71 µM (active).

With `CC(=O)c1ccc2cccc3c2c1NC(C)=N3` the IC50 [24] was 3.05 µM (active), the EC50 (Troponin, cardiac muscle) was 17.3 µM (inactive) and the EC50 [25] was 6.57 µM (active). For the same compound, the EC50 [26] was 9.79 µM (active) and the IC50 [27] was > 100 µM (inactive).

For `Cc1ccc(N=Nc2ccc(O)c3ncccc23)cc1C`, the EC50 [28] was > 60 µM (inconclusive), the IC50 [29] was 1.66 µM (active) and the EC50 (Beta-galactosidase [30]) was > 40 µM (inactive). For the same compound, the EC50 (Hexokinase HKDC1) was 21.7 µM (inactive), the IC50 [31] was 35.3 µM (not active) and the IC50 [32] was 2.41 µM (active). The EC50 (Hexokinase-1) was > 80 µM (inactive) and the EC50 [33] was 1.13 µM (active).
